Here are results for 12 compounds from ChEMBL document CHEMBL1201862, “PubChem BioAssay data set” (2004).

Among the test systems are ACHN; BT-549; COLO 205; HCC 2998; HOP-92; K562; LOX IMVI; MCF7; MDA-N; MOLT-4; NCI/ADR-RES; OVCAR-5; RXF 393; SF-295; SK-MEL-2; T47D; HL-60; Hs-578T; SF-268.
Holding throughout (assay): DTP human tumour cell line panel, 48 h

Structures are written as SMILES.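 Test compounds were applied to cells in 96-well plates for 48 hours at 5 doses. GI50 = concentration required for 50% inhibition of growth.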 Active and inactive are the calls of the source. Rule as the data show it: active = GI50 up to about 1.1 µM and inactive = higher.

As usually defined, the GI50 is the concentration that inhibits growth by half. As to `CSC12c3cc(C)n(-c4ccc([N+](=O)[O-])cc4)c3CC(C)(C)CN1C(=O)C2Oc1ccccc1` (centres undefined), the GI50 was > 100 µM (inactive) in the assay with ACHN; > 100 µM (inactive) in the assay on BT-549; > 100 µM (inactive) in the assay with COLO 205; 35.5 µM (inactive) in the assay on HCC 2998; 24.2 µM (inactive) with HOP-92; > 100 µM (inactive) in the assay with K562. Besides, the GI50 in the assay with LOX IMVI was > 100 µM (inactive); with MCF7, 28.6 µM (inactive); in the assay with MDA-N, > 100 µM (inactive); in the assay on MOLT-4 it was > 100 µM (inactive); with NCI/ADR-RES, > 100 µM (inactive); in the assay with OVCAR-5, > 100 µM (inactive). The GI50 in the assay with RXF 393 was > 100 µM (inactive); with SF-295 it was > 100 µM (inactive); with SK-MEL-2 it was > 100 µM (inactive); with T47D, 32.7 µM (inactive).

Consider `CN(C)CCCN=C(N)N`, for which the GI50 in the assay with ACHN was > 100 µM (inactive); in the assay with BT-549, > 100 µM (inactive); in the assay with COLO 205 it was > 100 µM (inactive); in the assay with HL-60 it was 85.3 µM (inactive); in the assay on HOP-92 it was > 100 µM (inactive); in the assay on Hs-578T it was > 100 µM (inactive). In addition, the GI50 in the assay on K562, in the assay on LOX IMVI, in the assay on MCF7, with MDA-N, with MOLT-4 and in the assay on NCI/ADR-RES was > 100 µM (inactive) each time. Moreover, the GI50 in the assay with OVCAR-5, with RXF 393, with SF-268, in the assay with SF-295, in the assay on SK-MEL-2 and in the assay on T47D was > 100 µM (inactive) each time.

With `CCCc1cn2c(/C=N/NC(=N)N)c(-c3cccc([N+](=O)[O-])c3)nc2s1`, the GI50 in the assay on ACHN was 1.79 µM (inactive); with BT-549 it was 1.57 µM (inactive); in the assay on COLO 205 it was 1.88 µM (inactive); in the assay with HL-60, 2.09 µM (inactive); with HOP-92, 11.1 µM (inactive); in the assay with Hs-578T, 2.68 µM (inactive). The GI50 was 1.58 µM (inactive) in the assay on K562; 2.07 µM (inactive) in the assay on LOX IMVI; 2.48 µM (inactive) in the assay on MCF7; 1.23 µM (inactive) in the assay with MOLT-4; 2.92 µM (inactive) in the assay on NCI/ADR-RES; 1.81 µM (inactive) in the assay with OVCAR-5. Further, the GI50 was 1.89 µM (inactive) with RXF 393; 2.25 µM (inactive) in the assay with SF-268; 1.84 µM (inactive) with SF-295; 2.1 µM (inactive) in the assay with SK-MEL-2; 1.94 µM (inactive) in the assay on T47D.

For `CC(SCc1ccccc1)C(=O)O` (centres undefined), the GI50 in the assay on ACHN, in the assay on BT-549, in the assay with COLO 205, in the assay on HL-60, with HOP-92 and in the assay on Hs-578T was > 100 µM (inactive) throughout. Further, the GI50 in the assay with K562, in the assay on LOX IMVI, in the assay with MCF7, in the assay with MDA-N, in the assay on MOLT-4 and in the assay with NCI/ADR-RES was > 100 µM (inactive) each time. For the same compound, the GI50 with OVCAR-5, in the assay on RXF 393, in the assay with SF-268, in the assay on SF-295, with SK-MEL-2 and with T47D was > 100 µM (inactive) throughout.

For the compound `CN(C)c1ccc(/N=N/c2ccc3[nH]cnc3c2)cc1`, the GI50 was 19 µM (inactive) in the assay on ACHN; 32.5 µM (inactive) in the assay with BT-549; 19.3 µM (inactive) in the assay with COLO 205; 14.7 µM (inactive) with HL-60; 34.7 µM (inactive) in the assay on Hs-578T; 19.5 µM (inactive) with K562. Further, the GI50 was 26.9 µM (inactive) with MDA-N; 21.8 µM (inactive) in the assay on MOLT-4; 41 µM (inactive) in the assay with NCI/ADR-RES; 26.5 µM (inactive) in the assay on OVCAR-5; 27.1 µM (inactive) with RXF 393; 20.6 µM (inactive) in the assay with SF-268. Further, the GI50 with SF-295 was 24.4 µM (inactive); in the assay on SK-MEL-2, 58.7 µM (inactive); in the assay on T47D it was 29.5 µM (inactive).

As to `C=C[C@]1(C)CC(=O)C(C(C)C=O)[C@]12C(=O)Oc1cccc(C)c1C2=O` (some centres undefined), the GI50 in the assay with ACHN is 15.6 µM (inactive); in the assay with BT-549, 14.3 µM (inactive); with COLO 205 it was 17.3 µM (inactive); with HCC 2998 it was 17.7 µM (inactive); in the assay on HL-60, 4 µM (inactive); in the assay with Hs-578T it was 16.3 µM (inactive). Further, the GI50 in the assay with K562 was 12.9 µM (inactive); in the assay with LOX IMVI it was 14 µM (inactive); in the assay with MCF7, 16.5 µM (inactive); in the assay on MDA-N it was 14.5 µM (inactive); in the assay on MOLT-4, 23.9 µM (inactive); in the assay on OVCAR-5, 16.6 µM (inactive). Further, the GI50 was 13.9 µM (inactive) in the assay with RXF 393; 24.1 µM (inactive) in the assay with SF-268; 15.5 µM (inactive) with SF-295; 17.1 µM (inactive) with SK-MEL-2; 16.4 µM (inactive) in the assay on T47D.

As for `CCOC(=O)c1ccc(NCC#CCN2CCOCC2)cc1`, the GI50 in the assay with ACHN is 46 µM (inactive); with BT-549 it was > 100 µM (inactive); in the assay on COLO 205 it was 38 µM (inactive); with HL-60, 48.1 µM (inactive); with HOP-92, > 100 µM (inactive); in the assay on Hs-578T, > 100 µM (inactive). Further, the GI50 in the assay on K562 is 38.6 µM (inactive); in the assay with LOX IMVI, > 100 µM (inactive); with MCF7, 66.4 µM (inactive); with MDA-N, 29.4 µM (inactive); in the assay with MOLT-4, > 100 µM (inactive); with NCI/ADR-RES, > 100 µM (inactive). Further, the GI50 in the assay on OVCAR-5 is 19.9 µM (inactive); in the assay on RXF 393, > 100 µM (inactive); in the assay on SF-268, > 100 µM (inactive); in the assay with SK-MEL-2 it was > 100 µM (inactive); in the assay with T47D, > 100 µM (inactive).

`COc1ccc2nc3cc(Cl)ccc3c(NCCCNCCCNc3c4ccc(Cl)cc4nc4ccc(OC)cc34)c2c1`: the concentration for 50% growth inhibition (GI50) was < 0.01 µM (active) with ACHN; 0.21 µM (active) with BT-549; < 0.011 µM (active) with COLO 205; 0.0178 µM (active) in the assay on HCC 2998; 0.0278 µM (active) with HL-60; 0.0719 µM (active) in the assay with HOP-92. In addition, the GI50 is < 0.01 µM (active) in the assay with K562; < 0.01 µM (active) in the assay with LOX IMVI; 0.012 µM (active) in the assay with MCF7; < 0.01 µM (active) with MDA-N; 0.329 µM (active) with MOLT-4; 0.581 µM (active) in the assay with NCI/ADR-RES. The GI50 in the assay on OVCAR-5 is < 0.0224 µM (active); in the assay with RXF 393, 0.224 µM (active); with SF-268, 0.0111 µM (active); in the assay on SF-295 it was < 0.01 µM (active); in the assay on SK-MEL-2 it was 0.0404 µM (active); in the assay on T47D it was 0.0625 µM (active).

For `COC(=O)c1cc2ccc(O)c(O)c2cn1`, the GI50 with ACHN was 19.1 µM (inactive); in the assay with BT-549, > 10 µM (inactive); in the assay with COLO 205, 18.9 µM (inactive); in the assay with HCC 2998 it was > 10 µM (inactive); in the assay with HL-60, 3.36 µM (inactive); with HOP-92 it was 12.6 µM (inactive). In addition, the GI50 in the assay on K562 is 2.42 µM (inactive); with LOX IMVI it was 1.96 µM (inactive); in the assay with MCF7, 3.56 µM (inactive); in the assay with MDA-N, 1.52 µM (inactive); in the assay on MOLT-4, 3.44 µM (inactive); in the assay on NCI/ADR-RES, 7.59 µM (inactive). The GI50 in the assay with OVCAR-5 was 19.5 µM (inactive); with RXF 393, 18 µM (inactive); with SF-268, 17.1 µM (inactive); with SF-295, 18.2 µM (inactive); in the assay with SK-MEL-2, 18.1 µM (inactive); in the assay on T47D it was > 10 µM (inactive).

Take `CC(C(=O)N1C(=O)N(C(=O)C(C)C(O)c2ccccc2)C(c2ccccc2)C1c1ccccc1)C(O)c1ccccc1` (centres undefined): the GI50 in the assay on ACHN is 6.7 µM (inactive); in the assay on BT-549, 12.6 µM (inactive); with COLO 205 it was 13.3 µM (inactive); in the assay with HCC 2998, 20.9 µM (inactive); in the assay on HL-60, 2.27 µM (inactive); in the assay with HOP-92, 5.92 µM (inactive). The GI50 was 11.1 µM (inactive) in the assay on Hs-578T; 4.47 µM (inactive) in the assay on K562; 11.9 µM (inactive) with LOX IMVI; 4.43 µM (inactive) in the assay on MCF7; > 10 µM (inactive) with MDA-N; 3.66 µM (inactive) with MOLT-4. The GI50 is 6.21 µM (inactive) with RXF 393; 13.4 µM (inactive) with SF-268; 2.84 µM (inactive) with SF-295; 10.2 µM (inactive) in the assay on SK-MEL-2; 6.47 µM (inactive) in the assay with T47D.

Consider `C[C@]12CC[C@@H]3c4ccc(O)cc4CC[C@H]3[C@@H]1C/C(=C\c1ccc(C#N)cc1)C2=O`, for which the GI50 in the assay on ACHN is 64 µM (inactive); with BT-549, 48.2 µM (inactive); in the assay with COLO 205, 37.2 µM (inactive); in the assay with HCC 2998 it was 37.3 µM (inactive); in the assay with HOP-92 it was 26.8 µM (inactive); with K562 it was > 100 µM (inactive). For the same compound, the GI50 in the assay with LOX IMVI is 40.8 µM (inactive); in the assay on MCF7 it was 45.5 µM (inactive); with MDA-N, 25 µM (inactive); in the assay with MOLT-4 it was 23.5 µM (inactive); in the assay with NCI/ADR-RES, 59.3 µM (inactive); in the assay on OVCAR-5, 71.8 µM (inactive). Besides, the GI50 in the assay on RXF 393 is 14.6 µM (inactive); in the assay on SF-268, 61 µM (inactive); with SF-295 it was 71.6 µM (inactive); with SK-MEL-2, 28.8 µM (inactive); with T47D, 46.8 µM (inactive).

Take `O=C(Nn1cnn2c(=O)c3ccccc3nc2c1=O)c1ccccc1`: the GI50 in the assay with ACHN, in the assay with BT-549, in the assay on COLO 205, in the assay with HCC 2998, in the assay on HL-60 and in the assay with HOP-92 was > 100 µM (inactive) throughout. For the same compound, the GI50 with Hs-578T, with K562, with LOX IMVI, in the assay with MCF7, in the assay on MDA-N and in the assay on OVCAR-5 was > 100 µM (inactive) in each case. Moreover, the GI50 in the assay with SF-268, in the assay with SF-295, in the assay with SK-MEL-2 and in the assay with T47D was > 100 µM (inactive) in each case.
